# According to US9000027B2, “Chk1 suppresses a caspase-2 apoptotic response to DNA damage that bypasses p53, bcl-2 and caspase-3” (Dana-Farber Cancer Institute, Inc., priority 2008, dated 2015):
# Experiments:
# p53^e7/e7 mutant embryos = experiment: Morpholino screen for suppressors of p53^e7/e7 radioresistance (live AO assay); format: in vivo, zebrafish; conditions: p53^e7/e7, 12.5 Gy at 18 hpf, 7.5 hpIR
# Experimental: We used morpholino antisense oligonucleotides (MOs) to knock down the expression levels of 8 zebrafish S- and G2-checkpoint kinases in p53^e7/e7 mutant embryos and assessed the ability of each knockdown to restore cell death (AO reactivity) at 7.5 hours post-IR (hpIR). We also tested several double-knockdown combinations, as well as knockdowns of non-kinase checkpoint regulators (p21^waf1/cip1 and smc1). For each knockdown, we scored a minimum of 50 embryos and quantified AO staining in at least 5 embryos. To avoid the isolation of false-positives, we adjusted the concentrations of each MO to the maximal dose compatible with normal embryonic development in the p53^e7/e7 background.
# Morpholino oligonucleotides (MOs) synthesized by Gene Tools™ LLC, were resuspended in sterile water at a concentration of 1 mM and delivered into zebrafish embryos at the one-cell stage by microinjection. […] For each previously unpublished MO, the working concentration was determined as the highest dose compatible with normal zebrafish development in the p53^e7/e7 background (maximal subtoxic concentration). […]
# Live zebrafish embryos were dechorionated in pronase (2.0 mg/mL in egg water) for 3 to 5 min and rinsed five times in egg water at 18 hpf. […] Lateral images of each zebrafish were acquired on a Zeiss Axioplan2 fluorescence microscope (5× lens), using OpenLab software and a Hammamatsu C4742-95 digital camera. […]
# myeloid cells = experiment: Quantification of myeloid cells (mpo/l-plastin in situ hybridization) in irradiated embryos; format: in vivo, zebrafish; conditions: p53^e7/e7 background, IR, 28 hpf
# From the text: FIG. 2 provides a series of fluorescent images, western blot images, in situ hybridization images and two sets of graphs as outlined below. chk1 knockdown radiosensitizes p53 mutants but is otherwise compatible with normal zebrafish development. (A) Fluorescence images of representative embryos of indicated genotypes+/−chk1 MO after 0- or 12.5-Gy IR. 5 bpmmMO, 5-base-pair mismatch MO. (B) Quantified AO responses of indicated genotypes with or without IR (12.5 Gy) and chk1 MO. Gray bars, p53^+/+ background; black bars, p53^e7/e7 background. AO staining was quantified in ≧8 embryos per condition, with ≧1000 embryos scored. All data are reported as means+/−SEM. ***P<0.0001 (two-tailed Student's t-test). […] (E) Fluorescence images of representative embryos of indicated genotypes. p53^e6 is the N168K mutation, corresponding to human residue 200. p53MO, MO against the p53 5′UTR. (F) Fluorescence images of live transgenic embryos injected with the indicated MOs at the 1-cell stage and expressing EGFP in the notochord (top, embryos photographed at 24 hpf) or in myeloid progenitors (bottom, embryos photographed at 16.5 hpf). […] (G) Quantification of myeloid cells in 28 hpf embryos generated as indicated (x-axis) and processed as in panel H. Gray bars, p53^+/+ background; black bars, p53^e7/e7 background. mpo/lplastin staining was quantified in 15 embryos per condition. […]
substance,measurement,setting,value
"chk1 MO: morpholino against zebrafish chk1 atg/5'UTR, aggcacagccattatgcaatcttcg (SEQ ID NO: 11) (AGGCACAGCCATTATGCAATCTTCG; all phosphorodiamidate morpholino (PMO))","AO reactivity restored, of the p53+/+ response",p53^e7/e7 mutant embryos,87.7%
same,average reduction in myeloid cell numbers,myeloid cells,2 fold
